Values of other authors as cited in patent US20070293529A1, “Tetrasubstituted ureas as modulators of 11-beta hydroxyl steroid dehydrogenase type 1” (priority 2006, published 2007).

How the values were obtained:
11βHSD1 = target: T1, 11βHSD1 (Homo sapiens, UniProt P28845); details: two randomized, double-blind, placebo-controlled crossover studies
T1 construct: host or cells: endogenous enzyme of the treated subjects (brain)

11βHSD1 in the eye = target: T2, 11βHSD1 in the eye (Homo sapiens, UniProt P28845); details: healthy volunteers, after seven days of carbenoxolone treatment
T2 construct: host or cells: endogenous enzyme in the eye (NPE cells) of the treated volunteers
T2 sequence (P28845 whole entry): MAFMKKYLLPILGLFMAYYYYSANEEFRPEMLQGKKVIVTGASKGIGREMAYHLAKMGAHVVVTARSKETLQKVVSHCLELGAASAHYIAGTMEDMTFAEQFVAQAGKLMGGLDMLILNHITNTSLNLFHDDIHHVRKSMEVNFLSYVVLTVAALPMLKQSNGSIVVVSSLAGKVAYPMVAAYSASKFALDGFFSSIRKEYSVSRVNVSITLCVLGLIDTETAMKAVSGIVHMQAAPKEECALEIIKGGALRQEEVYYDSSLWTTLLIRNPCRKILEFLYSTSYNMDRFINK

[1] = test system: primary hippocampal cells
[2] = test system: pancreatic islet cells of ob/ob mice

T1 sequence (P28845 whole entry): as above

SMILES: CC1(C)[C@@H](OC(=O)CCC(=O)O)CC[C@]2(C)[C@H]3C(=O)C=C4[C@@H]5C[C@@](C)(C(=O)O)CC[C@]5(C)CC[C@@]4(C)[C@]3(C)CC[C@@H]12 [carbenoxolone]
- negative effects of glucocorticoids on bone nodule formation (bone nodule formation): attenuate the negative effects of glucocorticoids on bone nodule formation
- verbal fluency and verbal memory (11βHSD1): improved verbal fluency and verbal memory
- reduction of intra-ocular pressure (IOP) (11βHSD1 in the eye): 18%
- protection from glucocorticoid-mediated exacerbation of excitatory amino acid neurotoxicity [1]: protects the cells from glucocorticoid-mediated exacerbation of excitatory amino acid neurotoxicity
- glucose-stimulated insulin release [2]: improves glucose-stimulated insulin release
